Results: patent publication US10093627B2, “Tetrahydroquinoline derivatives and their use as Epac inhibitors” (Institut National de la Sante et de la Recherche Medicale …, priority 2012, dated 2018)
pEC50, pIC50: −log10 of the molar value.

Assays:
Epac1 [1] = molecular target: T1, Epac1 (Homo sapiens, UniProt O95398); assay: In vitro GEF activity (initial velocity of GDP exchange on Rap1A) of Epac1; type: biochemical; conditions: for Antagonism of cAMP-activated Epac1 GEF activity: compound 30 μM, 300 μM cAMP, FIG. 6C; for pEC50: Epac1 GEF activity toward Rap1, Epac1 activated by 20 μM 007, mean of n=4 to 9 independent determinations; for Dose-response curve of inhibition of 007-activated Epac1 GEF activity, comparison between compounds: Epac1 activated by 20 μM 007, FIG. 5
T1 construct: Recombinant human Epac1 (residues 149-881), deleted of its Dishevelled, Egl-10, and Pleckstrin (DEP) domain; made in house
T1 sequence (O95398 149-881 isoform O95398-3): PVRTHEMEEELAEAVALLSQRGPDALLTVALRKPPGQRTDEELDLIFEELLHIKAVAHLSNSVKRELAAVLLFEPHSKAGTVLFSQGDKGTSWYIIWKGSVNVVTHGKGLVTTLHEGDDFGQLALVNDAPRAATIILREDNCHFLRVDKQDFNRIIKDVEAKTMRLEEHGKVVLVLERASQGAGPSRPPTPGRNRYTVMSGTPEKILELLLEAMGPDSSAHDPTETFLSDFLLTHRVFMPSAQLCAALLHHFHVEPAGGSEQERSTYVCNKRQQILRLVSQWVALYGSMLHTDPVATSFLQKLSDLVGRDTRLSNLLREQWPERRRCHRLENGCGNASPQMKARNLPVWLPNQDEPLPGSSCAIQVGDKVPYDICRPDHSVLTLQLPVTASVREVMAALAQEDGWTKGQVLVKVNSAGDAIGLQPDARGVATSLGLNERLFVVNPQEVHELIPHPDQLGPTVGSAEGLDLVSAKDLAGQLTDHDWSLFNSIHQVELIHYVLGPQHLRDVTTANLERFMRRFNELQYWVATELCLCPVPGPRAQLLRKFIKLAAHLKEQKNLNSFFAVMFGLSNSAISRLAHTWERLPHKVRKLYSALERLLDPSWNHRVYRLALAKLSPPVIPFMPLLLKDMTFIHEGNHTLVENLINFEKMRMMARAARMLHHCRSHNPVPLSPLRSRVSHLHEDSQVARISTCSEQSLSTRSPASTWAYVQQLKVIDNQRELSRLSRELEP
Experimental: Protein NCBI Reference Sequences for human Epac1 and Epac2 are NP_006096 and NP_008954, respectively. Recombinant human Epac1 (residues 149-881), deleted of its Dishevelled, Egl-10, and Pleckstrin (DEP) domain, and human Rap1A were produced with GST as a fusion tag (D. Courilleau et al., Identification of a tetrahydroquinoline analog as a pharmacological inhibitor of the cAMP-binding protein Epac, J. Biol. Chem. 287 (2012) 44192-44202).
(§1) In vitro GDP exchange catalyzed by Epac was measured using purified recombinant Epac isoforms and Rap1A loaded with Bodipy-GDP, as described in D. Courilleau, et al (above mentioned). The GEF activity of Epac proteins was initiated by injection of the agonist. Stock solutions of CE3F4 and its analogs (12 mM in 100% DMSO) were kept at −20° C. and were diluted in assay buffer (0.67% final DMSO concentration) just before use for GDP exchange assays. The release of Bodipy-GDP was measured in real time as the decay of fluorescence. A single exponential was fit to the time-course data using the Graphpad Prism program. The initial velocity (Vi) of GDP exchange on Rap1 was calculated as described in D. Courilleau et al.).
(§2) Data are expressed as mean±S.D. Differences in quantitative variables were examined by unpaired one- or two-tailed Student's t test. EC50 and IC50 values were computed according to a four-parameters dose-response model and compared on the basis of the extra sum-of square F test, using Graphpad Prism. Two-tailed Wilcoxon matched-pair signed rank tests were performed using GraphPad Prism.

Epac2(B) = molecular target: T2, Epac2(B) (Homo sapiens, UniProt Q8WZA2); assay: In vitro GEF activity (initial velocity of GDP exchange on Rap1A) of Epac2(B); type: biochemical; conditions: for Antagonism of cAMP-activated Epac2(B) GEF activity: compound 30 μM, 300 μM cAMP, FIG. 6C
T2 construct: Human Epac2(B) (amino acids 283-1011) lacks the first 283 amino acids of Epac2; made in house; host or cells: Escherichia coli Rosetta 2(DE3)
T2 sequence (Q8WZA2 283-1011): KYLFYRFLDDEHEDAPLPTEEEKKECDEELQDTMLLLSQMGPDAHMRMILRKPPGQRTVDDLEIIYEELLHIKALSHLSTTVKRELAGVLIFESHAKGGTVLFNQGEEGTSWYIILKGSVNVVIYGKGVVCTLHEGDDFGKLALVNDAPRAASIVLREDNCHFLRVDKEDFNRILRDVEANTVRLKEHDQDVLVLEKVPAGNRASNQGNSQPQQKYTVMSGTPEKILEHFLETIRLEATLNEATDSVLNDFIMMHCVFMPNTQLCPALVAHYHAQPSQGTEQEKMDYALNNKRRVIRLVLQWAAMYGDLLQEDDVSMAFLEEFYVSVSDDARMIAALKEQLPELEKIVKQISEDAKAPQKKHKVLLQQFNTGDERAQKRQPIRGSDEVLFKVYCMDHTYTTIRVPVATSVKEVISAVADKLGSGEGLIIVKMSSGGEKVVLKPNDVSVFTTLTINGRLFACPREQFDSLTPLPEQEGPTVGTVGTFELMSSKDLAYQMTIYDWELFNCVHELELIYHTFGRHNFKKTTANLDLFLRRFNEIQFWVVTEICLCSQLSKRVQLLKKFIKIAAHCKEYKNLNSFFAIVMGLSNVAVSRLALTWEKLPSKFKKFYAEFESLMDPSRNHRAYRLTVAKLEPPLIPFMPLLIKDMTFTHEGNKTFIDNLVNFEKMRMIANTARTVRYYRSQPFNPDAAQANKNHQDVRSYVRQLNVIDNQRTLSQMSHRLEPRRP
Excerpt: Human Epac2(AB) (amino acids 43-1011) carries both the CNB-A and the CNB-B domains. Human Epac2(B) (amino acids 283-1011) lacks the first 283 amino acids of Epac2. It is therefore deleted of its CNB-A and DEP domains, but retains the CNB-B domain and the full catalytic region. Epac2(AB) was obtained by HindIII/NotI restriction and Epac2(B) was obtained by Ssp1/Not1 restriction of a human Epac2A cDNA (a gift from Ann M Graybiel, Department of Brain and Cognitive Sciences, MIT, Cambridge). Both cDNA fragments were inserted into pET41a (Novagen), expressed in Escherichia coli Rosetta 2(DE3) (Novagen), and the GST-tagged fusion proteins were purified by nickel-nitrilotriacetic acid beads (Qiagen), as described in D. Courilleau, et al., Identification of a tetrahydroquinoline analog as a pharmacological inhibitor of the cAMP-binding protein Epac, J. Biol. Chem. 287 (2012) 44192-44202).
as §1, §2

Epac1 [2] = molecular target: T1, Epac1; assay: Epac1 nucleotide exchange activity, multipoint (time-course) method, bGDP-loaded GST-Rap1A; type: biochemical; conditions: 25 μM compound 009; 2 μM compound 007; FIG. 1
Experimental: Epac1 nucleotide exchange activity was measured: • in the absence of compound 007, • or in the presence of 2 μM of compound 007, either alone or with 25 μM of compound 009, • or with 20 μM of CE3F4.
Variations of RFU (Relative Fluorescence Units) were studied as a function of time and fitted to single exponentials. Reported values are mean±SEM (n=3). (see Materiel and Methods).
Concerning FIG. 1, a “multipoint” (time-course) method was used. All components except the agonist (007) were mixed in a well and the exchange activity of Epac1 was initiated by injection of the agonist. GST-Rapt was preloaded with a fluorescent derivative of GDP, and the Epac1-catalyzed nucleotide exchange was measured using a large excess of non-fluorescent GDP, by taking advantage of the spectroscopic difference between free and Rap1-bound fluorescently labeled GDP. The principle of the method is similar to that reported in particular by Van den Berghe et al. (1997; Oncogene 15, 845), except that Bodipy FL-labeled GDP (bGDP) was used here, rather than 2′,3′-bis(O)—N-methylanthraniloyl-GDP (mant-GDP). […]

[3] = tested on: Epac1-induced Rap1 activation in HEK293 cells; assay: Epac1-induced Rap1 activation, Rap1-GTP pull-down in HEK293 cells; type: cell-based; conditions: HEK293 cells overexpressing Epac1 vs empty vector; FIG. 2A
Experimental: HEK293 cells were transfected with either pcDNA3 control vector or Epac1 (see FIG. 2A).
HEK293 cells were transfected with Epac1 and 24 h after transfection, cells were preincubated or not with CE3F4 for 30 min and were then treated or not with Sp-007 (10 μM) for 10 min (see FIG. 2B).
HEK293 cells overexpressing β1AR (Beta-1 adrenergic receptors) and transfected with Epac1 were pretreated or not with CE3F4 and stimulated or not with Iso (10 μM) for 10 min (see FIG. 2C).
Amounts of Rap1-GTP were determined by pull-down assays (see Material and Methods). The bar graph represents the mean±S.E.M. of 5 (FIG. 2A, 2B) or 3 (FIG. 2C) independent experiments. Results are expressed as the percentage of unstimulated control cells.
Ras and Rap1 pull-down experiments were performed using a GST fusion protein containing respectively the Ras binding domain of Raf1-RBD and the Rap1 binding domain of Ral-GDS as previously described (Métrich et al., 2008). Cells were starved for 1 h before stimulation in MEM free with penicillin-streptomycin (1%). After stimulation, cells were lysed in RIPA buffer (50 mM Tris-HCl, pH 7.5; 500 mM NaCl; 20 mM MgCl2; 0.5% deoxycholic acid; 0.1% SDS; 1% Triton X-100; 1 mM PMSF; protease and phosphatase inhibitors) and 500 μg of protein were incubated with either GST-Raf1-RBD (for Ras) or Ral-GDS (for Rap1) coupled to glutathione-Sepharose beads (Amersham Biosciences) for 1h at 4° C. Beads were then washed three times in washing buffer (50 mM Tris-HCl, pH 7.5; 150 mM NaCl, 20 mM MgCl2, 1% Triton X-100; 0.1 mM PMSF; protease and phosphatase inhibitors). Rap1-GTP or Ras samples and corresponding total lysates were separated on SDS-PAGE gels and transferred onto a polyvinylidene difluoride (PVDF) membrane (Amersham Pharmacia Biotech).

SMILES	Antagonism of cAMP-activated Epac1 GEF activity (Epac1 [1])	Antagonism of cAMP-activated Epac2(B) GEF activity (Epac2(B))	further results
CC1CCc2c(ccc(F)c2Br)N1C=O (stereo not shown) [a)]	antagonistic properties	antagonistic properties	–
CC1CCc2c(cc(Br)c(F)c2Br)N1 (stereo not shown) [h)]	antagonistic properties	–	–
Nc1nc2c(nc(Sc3ccc(Cl)cc3)n2[C@@H]2O[C@@H]3COP(=O)(O)O[C@H]3[C@H]2O)c(=O)[nH]1 [Compound 009, 8-(4-chlorophenylthio)-guanosine-3′,5′-cyclic monophosphate, reference compound]	–	–	Inhibition of the exchange reaction induced by Epac1 plus 007 (Epac1 [2]): inhibitory effect
O=CN1CCCc2c1cc(Br)c(F)c2Br [Compound f)]	antagonistic properties	antagonistic properties	pEC50 (Epac1 [1]): 4.30; Dose-response curve of inhibition of 007-activated Epac1 GEF activity, comparison between compounds (Epac1 [1]): not significantly different
CC1CCc2c(Br)cc(Br)cc2N1C=O (stereo not shown) [e)]	antagonistic properties	antagonistic properties	–
C[C@@H]1CCc2c(cc(Br)c(F)c2Br)N1C=O [(R)-CE3F4]	–	–	IC50 smaller than that of racemic CE3F4 (Epac1 GEF activity) (Epac1 [1]; 007-activated Epac1): about 2 fold; IC50 smaller than the IC50 values of (S)-CE3F4 and compound f) (Epac1 GEF activity) (Epac1 [1]; 007-activated Epac1): about 10 fold; pEC50 (Epac1 [1]): 5.24; Dose-response curve of inhibition of 007-activated Epac1 GEF activity, comparison between compounds (Epac1 [1]): more potent Epac inhibitor; pIC50 (Epac1 [1]; Epac1 activated by 300 μM cAMP): 5.38; pIC50 (Epac2(B); Epac2(B) activated by 300 μM cAMP): 4.36
CC(=O)N1c2cc(Br)c(F)c(Br)c2CCC1C (stereo not shown) [g)]	antagonistic properties	–	–
CC1CCc2c(ccc(F)c2C=O)N1C=O (stereo not shown) [d), reference compound]	no significant inhibitory activity	no significant inhibitory activity	–
CC1CCc2cc(F)c(Br)cc2N1C=O (stereo not shown) [b), reference compound]	no significant inhibitory activity	no significant inhibitory activity	–
CO[C@H]1C2OP(O)(=S)OC[C@H]2O[C@H]1n1c(Sc2ccc(Cl)cc2)nc2c(N)ncnc21 (stereo partly shown) [Sp-007, Sp-8-pCPT-2′-O-Me-cAMPS, reference compound]	–	–	Rap1 activation (Rap1-GTP/Total Rap1) by agonist [3]: robust activation of Rap1
